Experimental data taken from patent US9242984B2, “Pyrazolyl derivatives as Syk inhibitors” (Merck Sharp & Dohme Corp., priority 2012, dated 2016).
Like-named read-outs stand apart in the source and are kept apart here.

Target: T1, recombinant human Syk (GST-hSyk fusion protein) (Homo sapiens, UniProt P43405)
T1 construct: purchased Carna Biosciences 08-176
Test: Homogeneous Time-Resolved Fluorescence (HTRF) assay for the recombinant human Syk enzyme
Assay type: biochemical
Settings: 10-dose titration, 25 μM ATP
Outline: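 GST-hSyk (5 pM) preincubated 10 min with compound (0.1% DMSO) in 15 mM Tris-HCl pH 7.5, 2 mM DTT; reaction started with 250 nM biotinylated peptide, 5 mM Mg, 25 μM ATP, 45 min, room temperature. EDTA quench, Eu-anti-phosphotyrosine/SA-APC HTRF read after 30 min; IC50 from 10-dose titration (10 μM–0.508 nM), four-parameter fit.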

[1] = IC50 class, read-out: rhSYK Activity

Row | SMILES | IC50 [1] | IC50 (read-out: rhSYK IC50)
1 | Cc1cc(Nc2nccc(C(F)F)n2)cc(-c2cnn(CC3OC(=O)NC3CO)c2)c1 (single isomer, unassigned) [Example 33.2, 5-{[4-(3-{[4-(difluoromethyl)pyrimidin-2-yl]amino}-5-methylphenyl)-1H-pyrazol-1-yl]methyl}-4-(hydroxymethyl)-1,3-oxazolidin-2-one] | ≤ 0.1 µM | –
2 | Cc1cc(Nc2nccc(C(F)(F)F)n2)cc(-c2cnn(C3CCNC(=O)CC3)c2)c1 (single isomer, unassigned) [14 (isomer 1)] | ≤ 0.1 µM | –
3 | Cc1cc(Nc2nccc(C(F)F)n2)cc(-c2cnn(C3CCC(C(=O)O)CC3)c2)c1 (stereo not drawn) [Example 2.60, 4-[4-(3-{[4-(difluoromethyl)pyrimidin-2-yl]amino}-5-methylphenyl)-1H-pyrazol-1-yl]cyclohexanecarboxylic acid] | ≤ 0.1 µM | –
4 | Cc1cc(Nc2cc(C(F)(F)F)ccn2)nc(-c2cnn(CC(C)(O)CC#N)c2)c1 (stereo not drawn) [Example 20.4, 3-hydroxy-3-methyl-4-[4-(4-methyl-6-{[4-(trifluoromethyl)pyridin-2-yl]amino}pyridin-2-yl)-1H-pyrazol-1-yl]butanenitrile] | ≤ 0.1 µM | –
5 | O=C(O)C1CCC(n2cc(-c3cc(Cl)cc(Nc4cc(C(F)(F)F)ccn4)n3)cn2)CC1 (stereo not drawn) [Example 1.55, 4-[4-(4-chloro-6-{[4-(trifluoromethyl)pyridin-2-yl]amino}pyridin-2-yl)-1H-pyrazol-1-yl]cyclohexanecarboxylic acid] | ≤ 0.1 µM | –
6 | Cc1cc(Nc2nccc(OCCO)n2)cc(-c2cnn(C3CCC(C(N)=O)CC3)c2)c1 (stereo not drawn) [Example 8.17, 4-[4-(3-{[4-(2-hydroxy-ethoxy)pyrimidin-2-yl]amino}-5-methylphenyl)-1H-pyrazol-1-yl]-cyclo-hexanecarboxamide] | ≤ 0.1 µM | –
7 | Cc1cc(Nc2nccc(C(F)F)n2)cc(-c2cnn(C3CCC(O)C3(C)O)c2)c1 (stereo not drawn) [Example 22.13, 5-[4-(3-{[4-(difluoromethyl)pyrimidin-2-yl]amino}-5-methylphenyl)-1H-pyrazol-1-yl]-1-methylcyclopentane-1,2-diol] | ≤ 0.1 µM | 0.0036 µM
8 | Cc1cc(Nc2nccc(C(F)F)n2)cc(-c2cnn(CC3OC(=O)NC3=O)c2)c1 (stereo not drawn) [Example 2.75, 5-{[4-(3-{[4-(difluoromethyl)pyrimidin-2-yl]amino}-5-methylphenyl)-1H-pyrazol-1-yl]methyl}-1,3-oxazolidine-2,4-dione] | ≤ 0.1 µM | –
9 | Cc1cc(Nc2nccc(C)n2)cc(-c2cnn(C[C@H](O)C(=O)O)c2)c1 [Example 11.3, (2S)-2-hydroxy-3-(4-{3-methyl-5-[(4-methylpyrimidin-2-yl)amino]phenyl}-1H-pyrazol-1-yl)-propanoic acid] | ≤ 0.1 µM | –
10 | Cc1cc(Nc2nccc(C(F)F)n2)cc(-c2cnn(CC3OC(=O)NC34CC4)c2)c1 (stereo not drawn) [Example 3.94, 7-{[4-(3-{[4-(difluoromethyl)pyrimidin-2-yl]amino}-5-methylphenyl)-1H-pyrazol-1-yl]methyl}-6-oxa-4-azaspiro[2.4]heptan-5-one] | ≤ 0.1 µM | –
11 | Cc1cc(Nc2nccc(C(C)C)n2)cc(-c2cnn(C[C@H](O)C(N)=O)c2)c1 [Example 6.9, (2S)-2-hydroxy-3-[4-(3-methyl-5-{[4-(1-methyl-ethyl)pyrimidin-2-yl]-amino}phenyl)-1H-pyrazol-1-yl]propanamide] | ≤ 0.1 µM | –
12 | Cc1cc(Nc2nccc(C(F)(F)F)n2)cc(-c2cnn(C[C@H](O)C(=O)NCCO)c2)c1 [Example 6.1, (2S)-2-hydroxy-N-(2-hydroxyethyl)-3-[4-(3-methyl-5-{[4-(trifluoromethyl)pyrimidin-2-yl]amino}phenyl)-1H-pyrazol-1-yl]propanamide] | ≤ 0.1 µM | 0.0211 µM
13 | Cc1cc(Nc2nccc(C(F)F)n2)cc(-c2cnn(C[C@]3(O)C[C@H](C#N)C3)c2)c1 [Example 5.40, trans-3-{[4-(3-{[4-(difluoromethyl)pyrimidin-2-yl]amino}-5-methylphenyl)-1H-pyrazol-1-yl]methyl}-3-hydroxycyclobutane-carbonitrile] | ≤ 0.1 µM | –
